≈ marks a conversion by molar mass, not a printed value. Where “and” joins values, the source holds several entries; their conditions need not be identical. Identical values can stand only once.
How the values were obtained:
[1] = system: histamine release from rat mast cell; test: Inhibitory activity against histamine release from rat mast cell; assay type: cell-based; details: 10 μg/ml, read-out: Inhibitory rate against histamine release
Description: An anti-dinitrophenylated-ovalbumin (anti DNP-OVA) rat antiserum having 800 of PCA titer in homologous passive cutaneous anaphylaxis reaction in rats for 48 hours was diluted double with physiological saline, and 1 ml of diluted antiserum was injected intraperitoneally into rats to be passively sensitized. On the next day, peritoneal exudation cell (hereinafter referred to as "PEC") was collected. The collected PEC was washed with a medium containing 0.1% BSA, and 1.5×10^5 of the PEC were added to each test tube. AFter incubation at 37° C. for 10 minutes, 50 μl of test compound solution in a same medium was added thereto. After 30 seconds, 50 μl of antigen solution (DVA-OVA 100 μg/ml) was further added thereto to give the total amount of 500 μl of the reaction mixture, and histamine release reaction was induced. After 10 minutes, 1 ml of physiological saline with cooled Tris buffered solution containing 1 mM EDTA were added thereto to stop the reaction. After centrifugation, the amount of histamine in supernatant was determined by fluorescence method according to the method of Shore et al [cf. J. Pharmacol. Exp. Ther., 127, 182 (1959)]. Inhibition rate against histamine release was calculated according to the following equation.
Inhibition rate against histamine release [formula] M: Amount of histamine in supernatant under addition of antigen and non-addition of test compound
S: Amount of histamine in supernatant under addition of antigen and test compound
B: Amount of histamine in supernatant under non-addition of antigen and test compound.
The test compound was used in a concentration of 10 μg/ml.

[2] = system: smooth musculus trachealis; test: Relaxant activity of smooth musculus trachealis in guinea pig; design: species or system guinea pig (male Hartley); details: Cavia porcellus; tracheal chain strips, 37° C.; read-out: Concentration for 50% relaxation
Description: Male Hartley guinea pigs weighing 350 to 550 g were bleed to death, and immediately the tracheae were extirpated. According to the method of Takagi et al [cf. Chem. Pharm. Bull., 8, 716 (1958)], tracheal chain strips was prepared, and the sample was suspended on Magnus apparatus under addition of load of 0.5 g. The test was carried out at 37° C. of liquid temperature. After position of tonus was examined with histamine (10^-6 g/ml) and isoproterenol (10^-7 g/ml), the test compound dissolved in a mixture of dimethyl sulfoxide and physiological saline was added thereto, and the test compound was investigated with respect to the effect on smooth musculus trachealis. Theophylline was used as a positive comparative drug. The relaxation and the contraction of smooth musculus trachealis were recorded on servocorder (SR 6342: commercially available from Watanabe Instruments Corp.) by connecting Isotonic Transducer (TD-1125: commercially available from Nihon Kohden Kogyo Co., Ltd.) to a balancing box.

[3] = system: carrageenin edema in a foot-pad of rat; test: Effect on carrageenin edema in a foot-pad of rat; assay type: in vivo, rat (male Wister); details: 4 hours after carrageenin; for Inhibition rate against swelling: vs 0.5% CMC group
Description: The test was carried out according to the modified method on a method of Winter et al [Proc. Soc. Exp. Biol Med., 111, 544-547 (1962)]. Five male Wister rats weighing 148 to 162 g which were subjected to fasting for 24 hours were used as one group.
The test compound was suspended in 0.5% aqueous solution of CMC, and the suspension was administered orally in a amount of 50 mg/kg. After 60 minutes, 0.1 ml of 1% carrageenin solution in physiological saline was injected subcutaneously into the foot-pad of the left hind foot. Four hours after the injection of carrageenin, the volume of the foot-pad was measured by the apparatus for measurement of foot-pad volume in rat (commercially available from Ugobasile).
Swelling volume was calculated from the difference between a volume of foot-pad before inflaming the foot-pad, i.e. normal volume and that after inflaming it. Effect of a test compound was expressed as inhibition rate against swelling by calculating percentage in comparison with the 0.5% CMC administration group.
Indomethacin (commercially available from Merck Co.) was used as a positive comparative drug.

5-lipoxygenase = molecular target: T1, 5-lipoxygenase (Cavia porcellus, UniProt A0A286X958); test: 5-lipoxygenase inhibiting activity in guinea pig; assay type: biochemical; details: read-out: Inhibition rate against 5-lipoxygenase activity
T1 construct: 5-lipoxygenase was prepared with polymorphonuclear leukocyte obtained from peritoneal cavity; endogenous in cells; host or cells: guinea pig peritoneal polymorphonuclear leukocytes (casein-elicited)
T1 sequence (A0A286X958 1-674): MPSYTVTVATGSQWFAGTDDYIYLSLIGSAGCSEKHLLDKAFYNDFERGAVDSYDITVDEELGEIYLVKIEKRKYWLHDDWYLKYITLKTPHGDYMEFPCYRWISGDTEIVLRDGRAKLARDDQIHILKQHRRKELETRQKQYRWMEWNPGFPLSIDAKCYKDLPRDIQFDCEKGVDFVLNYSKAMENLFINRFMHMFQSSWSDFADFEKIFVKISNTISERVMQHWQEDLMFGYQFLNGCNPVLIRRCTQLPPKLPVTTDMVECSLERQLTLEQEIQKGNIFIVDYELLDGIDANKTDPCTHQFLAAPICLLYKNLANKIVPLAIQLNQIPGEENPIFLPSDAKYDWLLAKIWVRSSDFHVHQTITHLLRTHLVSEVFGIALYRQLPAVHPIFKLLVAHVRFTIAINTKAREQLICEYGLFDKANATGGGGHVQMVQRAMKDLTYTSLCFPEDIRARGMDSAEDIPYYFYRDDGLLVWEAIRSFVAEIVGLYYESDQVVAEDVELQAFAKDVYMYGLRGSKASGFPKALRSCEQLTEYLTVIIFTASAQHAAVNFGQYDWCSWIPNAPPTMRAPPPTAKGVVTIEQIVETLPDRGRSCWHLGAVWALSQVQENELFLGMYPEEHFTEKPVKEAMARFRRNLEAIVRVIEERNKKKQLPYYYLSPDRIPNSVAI
Description: The test was carried out according to the method of Ochi [cf. J. Biol. Chem., 258, 5754-5758 (1983)]. Two % casein solution in saline was injected intraperitoneally into guinea pigs in an amount of 1/10 of body weight. After 16 hours, 5-lipoxygenase was prepared with polymorphonuclear leukocyte obtained from peritoneal cavity. Test compound and 5-lipoxygenase were pre-incubated at 30° C. for 10 minutes, CaCl2 (calcium chloride) and ^14 C-arachidonic acid were added thereto, and the resulting mixture was incubated for 20 minutes. A mixture of ethyl acetate/methanol/0.2M citric acid=30/4/1 (by volume) was added thereto to stop the reaction. After centrifugation, the organic solvent layer was spotted on a plate for thin layer chromatography and developed. Effect of the test compound was determined from the amount of ^14 C-5-hydroxyeicosatetraenoic acid (hereinafter referred to as "5-HETE") formed from ^14 C-arachidonic acid. Radioactivity of 5-HETE position was measured with a liquid scintillation counter.
Inhibition rate against 5-lipoxygenase activity was calculated according to the following equation.
Inhibition rate against 5-lipoxygenase activity [formula] A: Value of radioactivity in the control group B: Value of radioactivity in the test compound group
Each test compound was used in a concentration of 10 μM.

[4] = 5 mg/kg p.o. (positive comparative drug)

Row | EC50 [2] [µg/mL] | inhibition at 10 µM (5-lipoxygenase) [%] | Compound | inhibition at 10 µg/mL [1] [%] | Swelling volume 4 hours after inflaming, mean ± standard error ([3]; 50 mg/kg p.o.) | Inhibition rate against swelling ([3]; 50 mg/kg p.o.) [%] | Swelling volume 4 hours after inflaming, mean ± standard error [3, 4] [mL] | Inhibition rate against swelling [3, 4] [%]
1 | 3.4 (≈ 9.36 µM) | 41.8 | CC(C)c1cccc2c(-c3nnn[nH]3)c(=O)n(Cc3ccc(F)cc3)c-2c1 [Example 10, 1-(4-Fluorobenzyl)-7-iso-propyl-3-(5-tetrazolyl)-1-azaazulane-2-one] | 99.8 | 0.58 mL and 0.58 ± 0.036 mL | 35.6 | – | –
2 | – | – | COc1ccc2c(c1)c(CC(=O)O)c(C)n2C(=O)c1ccc(Cl)cc1 [Indomethacin, reference compound] | – | – | – | 0.47 ± 0.056 | 47.8

Source: patent USRE34918E, “Azaazulene compounds which are useful as antiallergic and antiinflammatory agents” (Kaken Pharmaceutical Co., Ltd., priority 1988, dated 1995)
